Measurements reported in US12643867B2, “Compositions and uses thereof” (University of Virginia Patent Foundation, priority 2017, dated 2026).

Legend:
Experiment in all cases: SILAC LC-MS ATP acyl phosphate probe competition, native kinases in HEK293T
Assay type in all cases: binding
[1] = target: T1, M4K5 (Mitogen-activated protein kinase kinase kinase kinase 5) (Homo sapiens, UniProt Q9Y4K4); conditions: ATP 1 mM, Ketanserin, Ritanserin 100 μM, RF001 1 mM; for SILAC ratio, M4K5 Lys1 probe-modified peptide: site Lys1; for SILAC ratio, M4K5 Lys2 probe-modified peptide: site Lys2
T1 construct: Native kinases; endogenous in cells; host or cells: HEK293T soluble proteome
T1 sequence (Q9Y4K4 whole entry): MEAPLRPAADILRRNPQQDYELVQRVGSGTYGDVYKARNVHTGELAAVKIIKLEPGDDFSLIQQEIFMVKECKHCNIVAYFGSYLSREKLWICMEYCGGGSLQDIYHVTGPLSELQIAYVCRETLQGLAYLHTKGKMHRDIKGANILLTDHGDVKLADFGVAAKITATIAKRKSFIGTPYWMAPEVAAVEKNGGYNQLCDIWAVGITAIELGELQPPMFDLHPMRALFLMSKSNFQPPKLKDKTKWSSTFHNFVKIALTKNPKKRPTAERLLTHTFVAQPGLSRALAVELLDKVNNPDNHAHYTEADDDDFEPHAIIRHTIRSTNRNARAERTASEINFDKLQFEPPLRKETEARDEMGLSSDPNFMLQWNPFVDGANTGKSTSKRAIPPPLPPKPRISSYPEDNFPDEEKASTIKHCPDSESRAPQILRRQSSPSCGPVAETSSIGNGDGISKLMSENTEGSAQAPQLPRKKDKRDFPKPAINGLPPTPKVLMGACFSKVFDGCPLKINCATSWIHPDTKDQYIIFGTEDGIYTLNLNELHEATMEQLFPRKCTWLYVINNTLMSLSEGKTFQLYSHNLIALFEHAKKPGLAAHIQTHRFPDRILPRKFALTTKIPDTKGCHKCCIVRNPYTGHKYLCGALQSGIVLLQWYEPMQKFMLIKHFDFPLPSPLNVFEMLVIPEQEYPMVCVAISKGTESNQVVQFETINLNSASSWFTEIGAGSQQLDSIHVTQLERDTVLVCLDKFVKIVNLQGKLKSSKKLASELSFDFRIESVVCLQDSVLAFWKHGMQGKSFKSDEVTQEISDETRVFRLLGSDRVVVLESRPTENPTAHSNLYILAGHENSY
In short: (§1)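 HEK293T SILAC proteomes, 2 mg/ml; heavy + compound (from 50× DMSO stock), light + DMSO, 30 min, 25° C. Mix 1:1, MeOH/CHCl3 extraction, DTT/iodoacetamide, trypsin/Lys-C 3 h 37° C. Avidin enrichment of desthiobiotin-modified peptides; Orbitrap Q Exactive Plus LC-MS, top-10 DDA.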

[2] = target: T2, KS6B2 (Ribosomal protein S6 kinase 2) (Homo sapiens, UniProt Q9UBS0); conditions: site Lys2; ATP 1 mM; Ketanserin, Ritanserin 100 μM; RF001 1 mM
T2 construct: measured against >50 native kinases quantified in HEK293T soluble proteomes; endogenous in cells; host or cells: HEK293T soluble proteome
T2 sequence (Q9UBS0 whole entry): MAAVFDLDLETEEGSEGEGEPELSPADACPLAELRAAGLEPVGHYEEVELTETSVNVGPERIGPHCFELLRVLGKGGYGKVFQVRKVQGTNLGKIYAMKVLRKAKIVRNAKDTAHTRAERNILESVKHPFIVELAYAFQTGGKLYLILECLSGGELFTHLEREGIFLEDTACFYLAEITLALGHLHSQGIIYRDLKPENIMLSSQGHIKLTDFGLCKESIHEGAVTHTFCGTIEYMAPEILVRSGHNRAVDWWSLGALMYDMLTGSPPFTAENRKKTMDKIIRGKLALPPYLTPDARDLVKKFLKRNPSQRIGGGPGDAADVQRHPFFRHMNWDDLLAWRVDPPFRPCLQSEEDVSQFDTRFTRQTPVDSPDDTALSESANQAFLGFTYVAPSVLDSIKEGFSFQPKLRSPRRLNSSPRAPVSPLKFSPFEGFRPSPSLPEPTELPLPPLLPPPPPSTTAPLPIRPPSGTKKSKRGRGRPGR
In short: as §1

[3] = target: T3, M4K3 (Mitogen-activated protein kinase kinase kinase kinase 3) (Homo sapiens, UniProt Q8IVH8); conditions: site Lys2; ATP 1 mM; Ketanserin, Ritanserin 100 μM; RF001 1 mM
T3 construct: Native kinases; endogenous in cells; host or cells: HEK293T soluble proteome
T3 sequence (Q8IVH8 1-894): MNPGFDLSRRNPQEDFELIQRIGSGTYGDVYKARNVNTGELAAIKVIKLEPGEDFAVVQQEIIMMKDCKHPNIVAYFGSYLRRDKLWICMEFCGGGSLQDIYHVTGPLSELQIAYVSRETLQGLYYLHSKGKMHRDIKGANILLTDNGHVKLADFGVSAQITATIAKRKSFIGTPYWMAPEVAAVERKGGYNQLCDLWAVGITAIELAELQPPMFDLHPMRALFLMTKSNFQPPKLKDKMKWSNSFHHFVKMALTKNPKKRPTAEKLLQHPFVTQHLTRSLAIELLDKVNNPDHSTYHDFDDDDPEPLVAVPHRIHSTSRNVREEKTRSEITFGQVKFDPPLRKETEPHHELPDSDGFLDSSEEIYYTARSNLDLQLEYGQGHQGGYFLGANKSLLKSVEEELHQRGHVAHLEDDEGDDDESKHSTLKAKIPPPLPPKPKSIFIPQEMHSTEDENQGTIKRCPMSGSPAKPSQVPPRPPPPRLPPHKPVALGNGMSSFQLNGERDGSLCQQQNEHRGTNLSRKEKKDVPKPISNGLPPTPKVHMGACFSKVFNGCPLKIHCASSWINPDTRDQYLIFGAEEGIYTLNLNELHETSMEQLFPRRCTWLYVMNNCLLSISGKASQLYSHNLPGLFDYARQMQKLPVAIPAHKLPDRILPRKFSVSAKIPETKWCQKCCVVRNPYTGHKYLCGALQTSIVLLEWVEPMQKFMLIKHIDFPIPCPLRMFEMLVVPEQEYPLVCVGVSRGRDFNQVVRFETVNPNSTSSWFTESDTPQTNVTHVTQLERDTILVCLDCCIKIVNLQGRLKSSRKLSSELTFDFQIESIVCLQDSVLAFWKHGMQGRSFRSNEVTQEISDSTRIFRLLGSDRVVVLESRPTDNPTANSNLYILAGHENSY
In short: as §1

Row | SILAC ratio, M4K5 Lys1 probe-modified peptide [1] | SILAC ratio, M4K5 Lys2 probe-modified peptide [1] | SILAC ratio, KS6B2 probe-modified peptide [2] | SILAC ratio, M4K3 probe-modified peptide [3] | Structure (SMILES)
1 | 1.3 | 1.3 | 1.1 | 1.4 | O=C(c1ccc(F)cc1)C1CCN(CCn2c(=O)[nH]c3ccccc3c2=O)CC1 [Ketanserin]
2 | 0.9 | 1.3 | 1.7 | 1.1 | Fc1ccc(C(=C2CCNCC2)c2ccc(F)cc2)cc1 [RF001, 4-(Bis(4-fluorophenyl)methylene) piperidine]

Row | Structure (SMILES) | SILAC ratio, M4K5 Lys1 probe-modified peptide [1] | SILAC ratio, M4K5 Lys2 probe-modified peptide [1] | SILAC ratio, KS6B2 probe-modified peptide [2] | SILAC ratio, M4K3 probe-modified peptide [3]
3 | Cc1nc2sccn2c(=O)c1CCN1CCC(=C(c2ccc(F)cc2)c2ccc(F)cc2)CC1 [Ritanserin] | 2.4 | 1.9 | 1.4 | 1.8
